Laboratory results from ChEMBL document CHEMBL1140755, “Interaction of aliphatic cap group in inhibition of histone deacetylases by cyclic tetrapeptides” (Bioorg Med Chem, 2008).
Non-standard residues stand in square brackets, D forms with d. Residues, ends and D or L forms follow the SMILES beside them. Ahp(7-SS(2-pyridyl)) = N[C@@H](CCCCCSSc1ccccn1)C(=O)O; Aib = CC(C)(N)C(=O)O

What was measured:
[1] = biological target: T1, Protein deacetylase HDAC6 (Homo sapiens, UniProt Q9UBN7); test: Inhibition of HDAC6 expressed in 293T cells; assay type: cell-based
T1 sequence (Q9UBN7 whole entry): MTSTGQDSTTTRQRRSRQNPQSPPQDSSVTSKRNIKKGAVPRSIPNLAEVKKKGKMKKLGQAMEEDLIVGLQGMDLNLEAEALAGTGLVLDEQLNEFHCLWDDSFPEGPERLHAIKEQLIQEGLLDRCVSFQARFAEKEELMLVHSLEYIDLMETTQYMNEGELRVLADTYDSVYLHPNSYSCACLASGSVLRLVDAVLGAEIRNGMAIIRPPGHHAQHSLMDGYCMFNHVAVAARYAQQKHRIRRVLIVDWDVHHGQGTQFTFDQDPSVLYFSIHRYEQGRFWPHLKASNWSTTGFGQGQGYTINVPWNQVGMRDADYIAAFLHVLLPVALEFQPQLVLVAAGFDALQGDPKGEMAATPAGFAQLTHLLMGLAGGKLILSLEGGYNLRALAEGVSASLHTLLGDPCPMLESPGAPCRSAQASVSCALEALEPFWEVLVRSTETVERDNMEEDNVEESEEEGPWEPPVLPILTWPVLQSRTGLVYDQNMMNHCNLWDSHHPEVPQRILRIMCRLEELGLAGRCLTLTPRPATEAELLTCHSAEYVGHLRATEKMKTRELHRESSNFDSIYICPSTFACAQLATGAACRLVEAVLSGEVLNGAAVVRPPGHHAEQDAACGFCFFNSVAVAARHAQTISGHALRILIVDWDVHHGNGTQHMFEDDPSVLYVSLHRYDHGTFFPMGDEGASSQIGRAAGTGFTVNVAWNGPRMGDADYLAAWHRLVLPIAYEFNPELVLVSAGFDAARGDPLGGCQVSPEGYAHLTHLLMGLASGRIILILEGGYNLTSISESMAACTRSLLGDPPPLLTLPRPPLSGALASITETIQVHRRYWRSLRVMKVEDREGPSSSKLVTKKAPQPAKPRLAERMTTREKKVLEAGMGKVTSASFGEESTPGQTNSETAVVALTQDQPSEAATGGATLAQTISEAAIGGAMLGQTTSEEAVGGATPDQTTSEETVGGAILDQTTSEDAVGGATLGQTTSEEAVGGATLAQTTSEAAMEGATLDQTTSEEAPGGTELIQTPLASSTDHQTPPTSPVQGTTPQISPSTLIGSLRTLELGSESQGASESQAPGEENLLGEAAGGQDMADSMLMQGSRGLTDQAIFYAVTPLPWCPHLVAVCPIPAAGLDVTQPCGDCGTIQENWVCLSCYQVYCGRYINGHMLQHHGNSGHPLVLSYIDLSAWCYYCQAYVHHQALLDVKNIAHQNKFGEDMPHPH

Histone deacetylase 1 = Histone deacetylase 1 (Homo sapiens, UniProt Q13547); test: Inhibition of HDAC1 expressed in 293T cells; assay type: cell-based
Histone deacetylase 4 = Histone deacetylase 4 (Homo sapiens, UniProt P56524); test: Inhibition of HDAC4 expressed in 293T cells; assay type: cell-based
[2] = Selectivity of IC50 for HDAC6 to IC50 for HDAC1

Chain of Histone deacetylase 4 (P56524 whole entry): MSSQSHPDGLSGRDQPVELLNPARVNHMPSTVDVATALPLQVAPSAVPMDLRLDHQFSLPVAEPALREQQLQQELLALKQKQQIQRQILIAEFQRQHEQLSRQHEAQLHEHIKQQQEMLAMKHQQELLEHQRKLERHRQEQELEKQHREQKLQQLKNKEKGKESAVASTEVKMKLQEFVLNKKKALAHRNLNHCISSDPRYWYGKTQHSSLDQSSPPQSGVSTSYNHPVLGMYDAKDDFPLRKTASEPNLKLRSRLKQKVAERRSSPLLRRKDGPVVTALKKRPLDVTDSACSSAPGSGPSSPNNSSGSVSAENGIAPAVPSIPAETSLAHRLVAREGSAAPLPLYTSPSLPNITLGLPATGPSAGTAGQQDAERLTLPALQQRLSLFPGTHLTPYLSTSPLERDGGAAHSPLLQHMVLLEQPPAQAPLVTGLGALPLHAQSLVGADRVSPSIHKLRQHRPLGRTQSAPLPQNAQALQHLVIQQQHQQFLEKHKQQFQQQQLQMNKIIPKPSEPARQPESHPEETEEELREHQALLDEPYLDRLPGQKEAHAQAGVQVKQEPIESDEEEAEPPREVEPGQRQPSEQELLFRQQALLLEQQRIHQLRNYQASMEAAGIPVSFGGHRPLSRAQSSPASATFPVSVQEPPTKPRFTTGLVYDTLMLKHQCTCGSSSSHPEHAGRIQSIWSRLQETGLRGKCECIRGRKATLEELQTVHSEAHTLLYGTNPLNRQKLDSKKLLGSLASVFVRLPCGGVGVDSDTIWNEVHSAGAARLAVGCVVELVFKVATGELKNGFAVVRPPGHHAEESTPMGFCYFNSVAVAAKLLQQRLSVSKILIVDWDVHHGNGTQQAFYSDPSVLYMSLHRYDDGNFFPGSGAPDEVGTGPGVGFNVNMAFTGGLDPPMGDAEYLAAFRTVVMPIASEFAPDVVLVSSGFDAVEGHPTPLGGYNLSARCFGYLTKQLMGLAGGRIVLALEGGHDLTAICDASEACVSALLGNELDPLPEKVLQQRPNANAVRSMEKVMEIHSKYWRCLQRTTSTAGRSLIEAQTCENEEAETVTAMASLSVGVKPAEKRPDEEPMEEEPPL
Chain of Histone deacetylase 1 (Q13547 whole entry): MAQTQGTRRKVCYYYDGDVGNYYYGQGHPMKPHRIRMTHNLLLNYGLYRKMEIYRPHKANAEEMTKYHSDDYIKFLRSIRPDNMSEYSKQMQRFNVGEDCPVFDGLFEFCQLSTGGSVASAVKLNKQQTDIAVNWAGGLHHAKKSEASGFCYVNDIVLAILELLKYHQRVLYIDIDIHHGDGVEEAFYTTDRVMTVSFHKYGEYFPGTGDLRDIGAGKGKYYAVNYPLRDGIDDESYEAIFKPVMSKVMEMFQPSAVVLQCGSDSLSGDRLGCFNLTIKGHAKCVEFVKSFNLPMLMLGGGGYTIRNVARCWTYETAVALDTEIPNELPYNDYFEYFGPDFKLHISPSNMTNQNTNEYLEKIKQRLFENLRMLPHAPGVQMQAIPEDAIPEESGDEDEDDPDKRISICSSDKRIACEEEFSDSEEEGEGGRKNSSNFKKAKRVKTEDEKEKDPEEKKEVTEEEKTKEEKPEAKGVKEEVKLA

| Compound | IC50 [1] [nM] | IC50 (Histone deacetylase 1) [nM] | IC50 (Histone deacetylase 4) [nM] | Ratio IC50 [2] |
| --- | --- | --- | --- | --- |
| O=C1N[C@@H]2CCCCCCCCCCCC[C@H](NC2=O)C(=O)N2CCC[C@@H]2C(=O)N[C@H]1CCCCCSSc1ccccn1 | 4900 | 35 | 20 | 140 |
| CC1(C)NC(=O)[C@H](CCCCCSSc2ccccn2)NC(=O)[C@H]2CCCN2C(=O)[C@H](Cc2ccccc2)NC1=O (cyclo([Aib]F[dP][Ahp(7-SS(2-pyridyl))])) | 404 | 39 | 18 | 10.3 |

Continued, values first:

| IC50 [1] [nM] | IC50 (Histone deacetylase 1) [nM] | IC50 (Histone deacetylase 4) [nM] | Ratio IC50 [2] | Compound |
| --- | --- | --- | --- | --- |
| 230 | 58 | 33 |  | CC(C)C[C@@H]1NC(=O)C(C)(C)NC(=O)[C@H](CCCCCSSc2ccccn2)NC(=O)[C@H]2CCCN2C1=O |
| 280 | 38 | 24 |  | CCCC[C@@H]1NC(=O)C(C)(C)NC(=O)[C@H](CCCCCSSc2ccccn2)NC(=O)[C@H]2CCCN2C1=O |
| 310 | 38 | 23 |  | CC[C@H](C)[C@@H]1NC(=O)C(C)(C)NC(=O)[C@H](CCCCCSSc2ccccn2)NC(=O)[C@H]2CCCN2C1=O |
| 430 | 94 | 52 |  | C[C@@H]1NC(=O)C(C)(C)NC(=O)[C@H](CCCCCSSc2ccccn2)NC(=O)[C@H]2CCCN2C1=O (cyclo(A[dP][Ahp(7-SS(2-pyridyl))][Aib])) |
